Assay results reported in paper PMC8765781, “A platform of assays for the discovery of anti-Zika small-molecules with activity in a 3D-bioprinted outer-blood-retina model” (PLoS ONE, 2022).
Like-named read-outs stand apart in the source and are kept apart here.

Experiments:
[1] = test system: ZIKV-RLuc (Cambodian strain FSS13025); assay: microbe, parasite or virus in culture; format: cell-based, Zika virus; details: for AC50: Zika virus, Vero
[2] = read-out: Log AC50 (M) (converted)

With CCN(CC)Cc1ccc2cc(COC(=O)Nc3ccc(C(=O)NO)cc3)ccc2c1 [NCGC00346743-01] the AC50 (Vero cells) was 2.61 µM, the “Log AC50 (M)” value (Vero cells) was -5.5827 M and the “CC-v2 (curve class classification v2 of the dose response curve)” value (from here on “CC-v2”) [1] was -1.2. For the same compound, the “Efficacy (difference between neutral response and maximum compound response)” value [1] was -68.967, the “Max Resp (difference between neutral response and compound response for highest compound concentration)” value [1] was -98.985 and the AC50 [1] was 2.61e-06 M. For the same compound, the AC50 [1, 2] was 2.61e-06 M.

For COc1cc(C(=O)NC2CCN(C)CC2)ccc1Nc1ncc2c(n1)N(C1CCCC1)CCC(=O)N2C(C)C [NCGC00346965-01], the AC50 (Vero cells) was 13.1 µM, the “Log AC50 (M)” value (Vero cells) was -4.8827 M and the “CC-v2” value [1] was -2.4. For the same compound, the “Efficacy (difference between neutral response and maximum compound response)” value [1] was -47.886, the “Max Resp (difference between neutral response and compound response for highest compound concentration)” value [1] was -47.265 and the AC50 [1] was 1.31e-05 M. It also gave an AC50 [1, 2] of 1.31e-05 M.

In the case of CCOC(=O)N1CCN(/[N+]([O-])=N/Oc2ccc([N+](=O)[O-])cc2C#N)CC1 [NCGC00346969-01], the AC50 (Vero cells) is reported as 3.29 µM, the “Log AC50 (M)” value (Vero cells) is reported as -5.4827 M and the “CC-v2” value [1] is reported as -1.1. The “Efficacy (difference between neutral response and maximum compound response)” value [1] was -94.201, the “Max Resp (difference between neutral response and compound response for highest compound concentration)” value [1] was -99.104 and the AC50 [1] was 3.29e-06 M. The AC50 [1, 2] was 3.29e-06 M.

With C=C1[C@@H](O)[C@]2(O)OC[C@]34C2[C@]2(C)C(C[C@H]3OC(=O)[C@H](O)[C@@]14O)C(C)=CC(=O)[C@H]2O (some centres unmarked) [NCGC00347491-02] the AC50 (Vero cells) was 7.23 µM, the “Log AC50 (M)” value (Vero cells) was -5.1408 M and the “CC-v2” value [1] was -2.2. For the same compound, the “Efficacy (difference between neutral response and maximum compound response)” value [1] was -33.078, the “Max Resp (difference between neutral response and compound response for highest compound concentration)” value [1] was -33.995 and the AC50 [1] was 7.23e-06 M. It also gave an AC50 [1, 2] of 7.23e-06 M.

For CC(C)C(=O)O[C@H]1[C@@H]2[C@H](C)C(=O)O[C@@H]2C[C@@H](C)[C@@H]2C=CC(=O)[C@]21C [NCGC00347562-02], the AC50 (Vero cells) was 22.8 µM, the “Log AC50 (M)” value (Vero cells) was -4.6425 M and the “CC-v2” value [1] was -3. For the same compound, the “Efficacy (difference between neutral response and maximum compound response)” value [1] was -106.49, the “Max Resp (difference between neutral response and compound response for highest compound concentration)” value [1] was -96.985 and the AC50 [1] was 2.28e-05 M. It also gave an AC50 [1, 2] of 2.28e-05 M.

For C=C(C)C1Cc2c(cc(O)c3c2OC2COc4cc(OC)c(OC)cc4C2(O)C3=O)O1 (centres unmarked) [NCGC00347649-02], the AC50 (Vero cells) was 0.0927 µM, the “CC-v2” value [1] was -1.1 and the “Efficacy (difference between neutral response and maximum compound response)” value [1] was -91.85. The “Max Resp (difference between neutral response and compound response for highest compound concentration)” value [1] was -97.372, the AC50 [1] was 9.28e-08 M and the AC50 [1, 2] was 9.27e-08 M.

With COC(=O)C1(Cc2ccc(O)c(CC=C(C)C)c2)OC(=O)C(OC)=C1c1cc(O)c(O)c(CC=C(C)C)c1 (centres unmarked) [NCGC00347732-02] the AC50 (Vero cells) was 9.28 µM, the “Log AC50 (M)” value (Vero cells) was -5.0327 M and the “CC-v2” value [1] was -1.1. For the same compound, the “Efficacy (difference between neutral response and maximum compound response)” value [1] was -101.002, the “Max Resp (difference between neutral response and compound response for highest compound concentration)” value [1] was -99.456 and the AC50 [1] was 9.28e-06 M. For the same compound, the AC50 [1, 2] was 9.27e-06 M.

CC(C)=CCCC(C)(O)CCCC(C)(O)CCCC(C)(O)CCCC(C)(O)CCCC(C)(O)CCCC(C)(O)C(O)CC/C(C)=C/CC/C(C)=C/CO[C@@H]1O[C@H](CO)[C@@H](O)[C@H](O)[C@H]1O (some centres unmarked) [NCGC00347748-02] was tested, and the AC50 (Vero cells) was 3.62 µM, the “Log AC50 (M)” value (Vero cells) was -5.4408 M and the “CC-v2” value [1] was -1.1. The “Efficacy (difference between neutral response and maximum compound response)” value [1] was -100.94, the “Max Resp (difference between neutral response and compound response for highest compound concentration)” value [1] was -99.117 and the AC50 [1] was 3.62e-06 M. The AC50 [1, 2] was 3.62e-06 M.

CC(=O)OC1C=C(CO)C(=O)C(OC(=O)CC(C)C)C1C(C)C (centres unmarked) [NCGC00347760-02] was tested, and the AC50 (Vero cells) was 36.9 µM, the “Log AC50 (M)” value (Vero cells) was -4.4327 M and the “CC-v2” value [1] was -3. The “Efficacy (difference between neutral response and maximum compound response)” value [1] was -123.001, the “Max Resp (difference between neutral response and compound response for highest compound concentration)” value [1] was -99.998 and the AC50 [1] was 3.69e-05 M. For the same compound, the AC50 [1, 2] was 3.69e-05 M.

For CC(C)(C)OC(=O)N[C@@H](Cc1ccc(O[S+](=O)([O-])c2cccc3cnccc23)cc1)C(=O)N1CCCN(C(=O)OC(C)(C)C)CC1 [NCGC00348020-01], the AC50 (Vero cells) was 36.9 µM, the “Log AC50 (M)” value (Vero cells) was -4.4327 M and the “CC-v2” value [1] was -3. The “Efficacy (difference between neutral response and maximum compound response)” value [1] was -104.596, the “Max Resp (difference between neutral response and compound response for highest compound concentration)” value [1] was -83.301 and the AC50 [1] was 3.69e-05 M. For the same compound, the AC50 [1, 2] was 3.69e-05 M.

With CC1OC(OC2C(OC3C(OC4CCC5(C)C(CCC6(C)C5CC=C5C7CC(C)(C)CCC7(C(=O)O)C(O)CC56C)C4(C)C)OC(C(=O)O)C(O)C3O)OC(CO)C(OC3OCC(O)C(OC4OC(CO)C(O)C4O)C3O)C2OC2OC(C)C(O)C(O)C2O)C(O)C(O)C1O (centres unmarked) [NCGC00380107-01] the AC50 (Vero cells) was 12.8 µM, the “Log AC50 (M)” value (Vero cells) was -4.894 M and the “CC-v2” value [1] was -2.1. For the same compound, the “Efficacy (difference between neutral response and maximum compound response)” value [1] was -79.638, the “Max Resp (difference between neutral response and compound response for highest compound concentration)” value [1] was -81.884 and the AC50 [1] was 1.28e-05 M. For the same compound, the AC50 [1, 2] was 1.28e-05 M.

In the case of C[C@@H]1O[C@@H](O[C@H]2[C@H](OC(=O)[C@]34CCC(C)(C)C[C@H]3C3=CCC5[C@@]6(C)C[C@H](O)[C@H](O[C@@H]7O[C@H](C(=O)O)[C@@H](O)[C@H](O)[C@H]7O)[C@@](C)(CO)C6[C@H](O)C[C@@]5(C)[C@]3(C)CC4)OC[C@H](O)[C@@H]2O)[C@H](O)[C@H](O)[C@H]1O[C@@H]1OC[C@@H](O)[C@H](O[C@@H]2OC[C@](O)(CO)[C@H]2O)[C@H]1O (some centres unmarked) [NCGC00380219-01], the AC50 (Vero cells) is reported as 11.6 µM, the “Log AC50 (M)” value (Vero cells) is reported as -4.9345 M and the “CC-v2” value [1] is reported as -2.1. The “Efficacy (difference between neutral response and maximum compound response)” value [1] was -96.8, the “Max Resp (difference between neutral response and compound response for highest compound concentration)” value [1] was -99.643 and the AC50 [1] was 1.16e-05 M. For the same compound, the AC50 [1, 2] was 1.16e-05 M.

For COC1C(O)C(OC2CCC3(C)C(CCC4C3CCC3(C)C(C5=CC(=O)OC5)CCC43O)C2)OC(C)C1OC1OC(COC2OC(CO)C(O)C(O)C2O)C(O)C(O)C1O (centres unmarked) [NCGC00380220-01], the AC50 (Vero cells) was 1.29 µM, the “Log AC50 (M)” value (Vero cells) was -5.8908 M and the “CC-v2” value [1] was -1.1. The “Efficacy (difference between neutral response and maximum compound response)” value [1] was -95.552, the “Max Resp (difference between neutral response and compound response for highest compound concentration)” value [1] was -99.662 and the AC50 [1] was 1.29e-06 M. It also gave an AC50 [1, 2] of 1.29e-06 M.

For CC1CCCC(SCC(O)C(=O)O)CC(=O)c2c(O)cc(O)cc2CC(=O)O1 (centres unmarked) [NCGC00380419-01], the AC50 (Vero cells) was 18.2 µM, the “Log AC50 (M)” value (Vero cells) was -4.7408 M and the “CC-v2” value [1] was -3. The “Efficacy (difference between neutral response and maximum compound response)” value [1] was -93.408, the “Max Resp (difference between neutral response and compound response for highest compound concentration)” value [1] was -77.007 and the AC50 [1] was 1.82e-05 M. For the same compound, the AC50 [1, 2] was 1.82e-05 M.

C/C(=C\CO)CC/C=C(\C)CCC(O)C(C)(O)CCCC(C)(O)CCCC(C)(O)CCCC(C)(O)CCCC(C)(O)CCCC(C)(O)CCCC(C)(C)O (centres unmarked) [NCGC00381040-01] was tested, and the AC50 (Vero cells) was 1.44 µM, the “Log AC50 (M)” value (Vero cells) was -5.8408 M and the “CC-v2” value [1] was -1.1. For the same compound, the “Efficacy (difference between neutral response and maximum compound response)” value [1] was -92.604, the “Max Resp (difference between neutral response and compound response for highest compound concentration)” value [1] was -99.402 and the AC50 [1] was 1.44e-06 M. The AC50 [1, 2] was 1.44e-06 M.

With COc1ccc2c(c1)CN(C(=O)CCN1CCC(Cc3ccccc3)CC1)CCS2 [NCGC00384450-01] the AC50 (Vero cells) was 36.9 µM, the “Log AC50 (M)” value (Vero cells) was -4.4327 M and the “CC-v2” value [1] was -3. For the same compound, the “Efficacy (difference between neutral response and maximum compound response)” value [1] was -97.233, the “Max Resp (difference between neutral response and compound response for highest compound concentration)” value [1] was -83.243 and the AC50 [1] was 3.69e-05 M. The AC50 [1, 2] was 3.69e-05 M.

With C=C(C)[C@H]1CCC(C)=C[C@@H]1c1c(O)cc(CCCCC)cc1O [NCGC00385066-01] the AC50 (Vero cells) was 36.9 µM, the “Log AC50 (M)” value (Vero cells) was -4.4327 M and the “CC-v2” value [1] was -3. The “Efficacy (difference between neutral response and maximum compound response)” value [1] was -124.845, the “Max Resp (difference between neutral response and compound response for highest compound concentration)” value [1] was -99.067 and the AC50 [1] was 3.69e-05 M. It also gave an AC50 [1, 2] of 3.69e-05 M.

Oc1cc(O)cc(CCCCC/C=C\CCCCCCCc2cc(O)cc(O)c2)c1 [NCGC00385180-01] was tested, and the “Log AC50 (M)” value (Vero cells) was -4.4327 M, the “CC-v2” value [1] was -3 and the “Efficacy (difference between neutral response and maximum compound response)” value [1] was -110.94. The “Max Resp (difference between neutral response and compound response for highest compound concentration)” value [1] was -89.374, the AC50 [1] was 3.69e-05 M and the AC50 [1, 2] was 3.69e-05 M.

COc1ccc(-c2oc3cc(O)c(OC)c(O)c3c(=O)c2OC)cc1O [NCGC00385612-01] was tested, and the AC50 (Vero cells) was 1.17 µM, the “Log AC50 (M)” value (Vero cells) was -5.9327 M and the “CC-v2” value [1] was -1.2. The “Efficacy (difference between neutral response and maximum compound response)” value [1] was -71.455, the “Max Resp (difference between neutral response and compound response for highest compound concentration)” value [1] was -72.562 and the AC50 [1] was 1.17e-06 M. For the same compound, the AC50 [1, 2] was 1.17e-06 M.
